The source of these data is ChEMBL document CHEMBL3817748, “Identification of novel peptoid agonists of fibroblast growth factor receptor using microarray-based screening” (Medchemcomm, 2016).

Active and inactive are the calls of the source. No cut-off for these calls is given here. *1 amine or outer side, *2 acyl side, *3 side chain or, on linkers, in order; H or OH if unused. Where a SMILES comes first, the peptide text is derived from it. [ ]: non-standard residue; d: D form. ξ: configuration not given here. Gly(N-(CH2)3N-pyrrolidone) = O=C(O)CNCCCN1CCCC1=O; Gly(N-CH2CH2C6H4-4Cl) = O=C(O)CNCCc1ccc(Cl)cc1; X1 = O=C(CN(Cc1cccc(C(F)(F)F)c1)[*:1])[*:2]; X3 = CC(c1ccccc1)N(CC(=O)[*:2])[*:1]; Nrpe = C[C@@H](NCC(=O)O)c1ccccc1; X2 = O=C(CN(CC1CCCO1)[*:1])[*:2]; NFurfurylGly = O=C(O)CNCc1ccco1; Gly(N-cPent) = O=C(O)CNC1CCCC1; NAllylGly = C=CCNCC(=O)O; Nphe = O=C(O)CNCc1ccccc1; Nlys = NCCCCNCC(=O)O; ξC = NC(CS)C(=O)O

The species named for assay [1] is Homo sapiens. The assay can be described thus: Binding affinity to Fc-tagged FGFR1alpha (unknown origin) at 50 uM after 1 hr by Texas-red labeled anti-Fc detection based microarray assay.
The species entered for assay [2] is Homo sapiens. The assay can be described thus: Binding affinity to Fc-tagged FGFR1alpha (unknown origin) at 100 uM after 1 hr by Texas-red labeled anti-Fc detection based microarray assay.
For assay [3], the species on record is Homo sapiens. Nature of the assay: Binding affinity to Fc-tagged FGFR1alpha (unknown origin) uM after 1 hr by FITC-labeled anti-Fc detection based microarray assay.
For assay [4], the target named is Fibroblast growth factor receptor 2 (Homo sapiens) (UniProt P21802). Nature of the assay: Agonist activity at FGFR2 in human MDA231 cells assessed as increase in ERK phosphorylation at 15 uM after 10 mins by Western blot analysis. The class given is cell-based. (Immunoblotting shows a protein as a band on a membrane.)
Chain of Fibroblast growth factor receptor 2 (Homo sapiens) (P21802 22-821 limits assumed): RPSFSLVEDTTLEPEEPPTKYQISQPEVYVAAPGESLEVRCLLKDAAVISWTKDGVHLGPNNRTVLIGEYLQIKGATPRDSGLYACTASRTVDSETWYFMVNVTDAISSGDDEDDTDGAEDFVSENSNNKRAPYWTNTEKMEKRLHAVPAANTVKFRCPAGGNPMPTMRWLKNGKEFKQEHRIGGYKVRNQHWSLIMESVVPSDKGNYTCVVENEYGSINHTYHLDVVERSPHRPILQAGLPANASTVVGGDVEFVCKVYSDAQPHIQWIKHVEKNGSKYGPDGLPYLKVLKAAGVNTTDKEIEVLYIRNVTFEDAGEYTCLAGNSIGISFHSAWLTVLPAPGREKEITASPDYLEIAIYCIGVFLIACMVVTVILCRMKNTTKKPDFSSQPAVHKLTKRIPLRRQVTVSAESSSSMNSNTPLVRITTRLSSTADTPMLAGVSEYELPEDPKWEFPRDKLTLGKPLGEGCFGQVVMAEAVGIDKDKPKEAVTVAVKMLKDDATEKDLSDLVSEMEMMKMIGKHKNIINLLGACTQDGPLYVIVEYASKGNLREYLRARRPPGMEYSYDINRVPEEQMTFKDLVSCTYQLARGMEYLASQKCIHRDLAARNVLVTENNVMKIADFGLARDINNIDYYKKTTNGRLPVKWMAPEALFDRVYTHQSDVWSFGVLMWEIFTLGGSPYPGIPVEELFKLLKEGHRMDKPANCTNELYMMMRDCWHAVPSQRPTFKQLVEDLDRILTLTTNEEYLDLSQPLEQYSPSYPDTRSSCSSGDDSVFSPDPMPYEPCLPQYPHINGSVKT
The species named for assay [5] is Homo sapiens. The assay can be described thus: Binding affinity to Fc-tagged FGFR1alpha (unknown origin) at 150 uM by Texas-red labeled anti-Fc detection based fluorescence microscopic analysis.
The target of assay [6] is Fibroblast growth factor receptor 1 (Mus musculus) (UniProt P16092). Nature of the assay: Agonist activity at FGFR1 in mouse NIH-3T3 cells assessed as increase in Akt phosphorylation at 15 uM after 10 mins by Western blot analysis. The class given is cell-based. The following applies: NIH3T3.
Chain of Fibroblast growth factor receptor 1 (Mus musculus) (P16092 whole entry): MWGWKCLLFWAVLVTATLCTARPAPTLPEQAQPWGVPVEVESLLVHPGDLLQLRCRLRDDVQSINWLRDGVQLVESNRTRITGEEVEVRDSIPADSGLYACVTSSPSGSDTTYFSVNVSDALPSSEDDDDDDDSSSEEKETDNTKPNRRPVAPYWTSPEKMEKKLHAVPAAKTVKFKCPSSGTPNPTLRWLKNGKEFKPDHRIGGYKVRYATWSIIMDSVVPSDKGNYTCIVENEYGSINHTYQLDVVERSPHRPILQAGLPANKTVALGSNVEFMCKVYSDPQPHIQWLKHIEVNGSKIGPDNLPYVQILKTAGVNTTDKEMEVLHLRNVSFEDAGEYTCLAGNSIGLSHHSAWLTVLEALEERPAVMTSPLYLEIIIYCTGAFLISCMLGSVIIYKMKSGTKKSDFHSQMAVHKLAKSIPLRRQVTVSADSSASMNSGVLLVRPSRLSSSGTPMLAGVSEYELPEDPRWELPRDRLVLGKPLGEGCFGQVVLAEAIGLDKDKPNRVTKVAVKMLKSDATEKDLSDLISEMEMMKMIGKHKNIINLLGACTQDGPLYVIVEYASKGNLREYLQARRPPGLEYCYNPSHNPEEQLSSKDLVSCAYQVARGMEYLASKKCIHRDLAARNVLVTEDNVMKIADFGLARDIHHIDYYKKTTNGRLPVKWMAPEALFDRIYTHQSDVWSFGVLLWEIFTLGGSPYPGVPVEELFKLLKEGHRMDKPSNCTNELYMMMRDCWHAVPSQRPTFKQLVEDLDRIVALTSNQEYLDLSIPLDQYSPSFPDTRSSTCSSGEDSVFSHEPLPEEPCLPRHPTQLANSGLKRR
The subject of assay [7] is MCF7. The assay can be described thus: Agonist activity at FGFR1alpha in human MCF7 cells assessed as increase in ERK phosphorylation at 15 uM after 10 mins by Western blot analysis. The class given is cell-based.
Assay [8] has as its target Fibroblast growth factor receptor 2 (Homo sapiens) (UniProt P21802). The assay can be described thus: Agonist activity at FGFR2 in human MDA231 cells assessed as increase in Akt phosphorylation at 15 uM after 10 mins by Western blot analysis. The class given is cell-based.
Assay [9] deals with Fibroblast growth factor receptor 1 (Homo sapiens) (UniProt P11362). The assay can be described thus: Agonist activity at FGFR1 in human MCF7 cells assessed as increase in Akt phosphorylation at 15 uM after 10 mins by Western blot analysis. Type of assay: cell-based.
Chain of Fibroblast growth factor receptor 1 (Homo sapiens) (P11362 22-822 limits assumed): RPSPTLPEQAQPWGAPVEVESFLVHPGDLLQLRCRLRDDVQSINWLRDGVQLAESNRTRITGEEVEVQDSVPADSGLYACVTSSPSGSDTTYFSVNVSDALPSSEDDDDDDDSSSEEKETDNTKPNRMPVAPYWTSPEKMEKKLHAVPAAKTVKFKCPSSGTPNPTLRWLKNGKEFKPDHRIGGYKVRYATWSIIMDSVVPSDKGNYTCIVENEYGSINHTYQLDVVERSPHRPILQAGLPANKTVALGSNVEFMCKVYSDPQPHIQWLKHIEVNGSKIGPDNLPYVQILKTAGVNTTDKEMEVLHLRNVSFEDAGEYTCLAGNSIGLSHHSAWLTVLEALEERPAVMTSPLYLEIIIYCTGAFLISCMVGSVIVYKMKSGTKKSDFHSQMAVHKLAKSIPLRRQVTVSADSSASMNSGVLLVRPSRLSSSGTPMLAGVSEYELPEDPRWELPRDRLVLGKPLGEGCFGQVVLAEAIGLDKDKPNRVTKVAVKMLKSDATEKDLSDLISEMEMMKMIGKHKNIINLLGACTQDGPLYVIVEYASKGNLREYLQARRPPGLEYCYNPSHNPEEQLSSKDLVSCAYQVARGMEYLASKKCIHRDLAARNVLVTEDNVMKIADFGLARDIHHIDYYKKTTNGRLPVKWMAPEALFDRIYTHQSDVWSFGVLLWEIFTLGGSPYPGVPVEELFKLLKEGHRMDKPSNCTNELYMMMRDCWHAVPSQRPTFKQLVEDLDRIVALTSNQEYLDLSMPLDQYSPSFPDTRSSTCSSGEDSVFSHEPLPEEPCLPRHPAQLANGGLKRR
For assay [10], the species on record is Homo sapiens. The assay can be described thus: Binding affinity to Fc-tagged FGFR1alpha (unknown origin) at 25 uM after 1 hr by Texas-red labeled anti-Fc detection based microarray assay.
Assay [11] deals with Fibroblast growth factor receptor 1 (Mus musculus) (UniProt P16092). Nature of the assay: Agonist activity at FGFR1 in mouse NIH-3T3 cells assessed as increase in ERK phosphorylation at 15 uM after 10 mins by Western blot analysis. Type of assay: cell-based. The conditions noted are these: NIH3T3.

As to `CC(NCC(=O)N(CC(=O)N(CC(=O)N(CC(=O)N(CC(=O)N(CC(=O)N(CCCCN)CC(=O)N(CCCCN)CC(=O)NC(CS)C(N)=O)Cc1cccc(C(F)(F)F)c1)Cc1cccc(C(F)(F)F)c1)CC1CCCO1)Cc1ccccc1)C1CCCC1)c1ccccc1` (stereo unspecified), the result in assay [1] and in assay [2] was inactive.
`C=CCN(CC(=O)N(CC(=O)N(CCCN1CCCC1=O)CC(=O)N(CCCCN)CC(=O)N(CCCCN)CC(=O)N[C@@H](CS)C(N)=O)CC1CCCO1)C(=O)CN(C(=O)CN(Cc1cccc(C(F)(F)F)c1)C(=O)CNCCCN1CCCC1=O)[C@H](C)c1ccccc1` (stereo partly specified) (H-[Gly(N-(CH2)3N-pyrrolidone)][X1][Nrpe][NAllylGly][X2][Gly(N-(CH2)3N-pyrrolidone)][Nlys][Nlys]C-NH2): the result in [3], in assay [4], in assay [5], in assay [6], in assay [1] and in assay [7] was Active. The outcome in assay [8], in assay [9], in assay [2], in assay [10] and in assay [11] was Active.
Consider `C=CCN(CC(=O)N(CC(=O)N(CCCCN)CC(=O)N(CCCCN)CC(=O)N[C@@H](CS)C(N)=O)Cc1ccco1)C(=O)CN(Cc1ccco1)C(=O)CN(CC1CCCO1)C(=O)CN(C(=O)CNCCc1ccc(Cl)cc1)C1CCCC1` (stereo partly specified) (H-[Gly(N-CH2CH2C6H4-4Cl)][Gly(N-cPent)][X2][NFurfurylGly][NAllylGly][NFurfurylGly][Nlys][Nlys]C-NH2), for which the result in [3], in [1], in assay [2] and in [10] was Active. The outcome in assay [4], in [6], in assay [7], in assay [8], in [9] and in assay [11] was inactive.
As for `C=CCN(CC(=O)N(CC(=O)N(CC(=O)N(CC(=O)N(CCCCN)CC(=O)N(CCCCN)CC(=O)NC(CS)C(N)=O)C1CCCC1)Cc1ccco1)Cc1cccc(C(F)(F)F)c1)C(=O)CN(C(=O)CNCCc1ccc(Cl)cc1)C(C)c1ccccc1` (stereo unspecified) (H-[Gly(N-CH2CH2C6H4-4Cl)][X3][NAllylGly][X1][NFurfurylGly][Gly(N-cPent)][Nlys][Nlys][ξC]-NH2), the outcome in assay [1] and in assay [2] was inactive.
Regarding `C=CCN(CC(=O)N(CCCCN)CC(=O)N(CCCCN)CC(=O)N[C@@H](CS)C(N)=O)C(=O)CN(C(=O)CN(Cc1ccccc1)C(=O)CN(C(=O)CN(Cc1ccccc1)C(=O)CNC1CCCC1)C1CCCC1)[C@H](C)c1ccccc1` (H-[Gly(N-cPent)][Nphe][Gly(N-cPent)][Nphe][Nrpe][NAllylGly][Nlys][Nlys]C-NH2), the outcome in assay [3], in assay [4], in assay [6], in assay [1], in assay [7] and in assay [8] was Active. Besides, the result in [9], in [2], in assay [10] and in [11] was Active.
Turning to `C=CCN(CC(=O)N(CC(=O)N(CCCCN)CC(=O)N(CCCCN)CC(=O)N[C@@H](CS)C(N)=O)[C@H](C)c1ccccc1)C(=O)CN(Cc1ccco1)C(=O)CN(C(=O)CN(Cc1cccc(C(F)(F)F)c1)C(=O)CNCc1ccccc1)C1CCCC1` (H-[Nphe][X1][Gly(N-cPent)][NFurfurylGly][NAllylGly][Nrpe][Nlys][Nlys]C-NH2), the result in [3], in [4], in assay [5], in [6], in assay [1] and in [7] was Active. Besides, the result in assay [8], in assay [9], in [2], in [10] and in assay [11] was Active.
